From ChEMBL document CHEMBL1157845, “Structure-activity relationship of new anti-tuberculosis agents derived from oxazoline and oxazole benzyl esters” (Eur J Med Chem, 2010) come the findings set out here.

Values after ≈ are worked out from the molar mass of the structure shown. Active and inactive are the calls of the source.

The first test concerns Mycobacterium tuberculosis. Kind of test: Antimycobacterial activity against Mycobacterium tuberculosis Erdman infected in BALB/c mouse assessed as reduction of bacterial load at 200 mg/kg, po qd for 5 days per week administered 60 days after infection measured after 85 days post infection. Also noted: dose 200 mg/kg. It counts as functional, organism-based.
Conditions: not given
On to `O=C(OCc1ccccc1)c1coc(-c2ccc(F)cc2[N+](=O)[O-])n1`, for which the result was inactive.

For the molecule `O=C(OCc1ccccc1)[C@@H]1COC(c2cccc(Cl)c2)=N1`, the outcome was inactive.

In the case of `O=C(OCc1ccccc1)c1coc(-c2cncc(-c3ccccc3)c2)n1`, the result was inactive.

On to `O=C(OCc1ccccc1)c1coc(-c2cccc(Cl)c2)n1`, for which the outcome was inactive.

For the molecule `O=C(OCc1ccccc1)c1coc(-c2ccc([N+](=O)[O-])cc2)n1`, the outcome was inactive.

As for `O=C(OCc1ccccc1)[C@@H]1COC(c2cccnc2)=N1`, the result was inactive.

Turning to `Cc1ccc(C2=N[C@H](C(=O)OCc3ccccc3)CO2)cc1`, the result was inactive.

Turning to `CCOc1ccc(C2=N[C@H](C(=O)OCc3ccccc3)CO2)cc1F`, the result was inactive.

Regarding `COc1ccc(C2=N[C@H](C(=O)OCc3ccccc3)[C@H](C)O2)cc1`, the result was inactive.

On to `COc1ccc(CC2=N[C@H](C(=O)OCc3ccccc3)CO2)cc1`, for which the outcome was inactive.

Consider `O=C(OCc1ccccc1)[C@@H]1COC(c2cccnc2Oc2ccccc2)=N1`, for which the result was inactive.

`CCCOc1ccc(-c2nc(C(=O)OCc3ccccc3)co2)cc1`: the outcome was inactive.

Consider `O=C(OCc1ccccc1)[C@@H]1COC(c2ccccn2)=N1`, for which the outcome was inactive.

On to `O=C(OCc1ccccc1)[C@@H]1COC(c2ccncc2)=N1`, for which the outcome was inactive.

As for `O=C(OCc1ccccc1)[C@@H]1COC(c2ccccc2Cl)=N1`, the outcome was inactive.

As for `O=C(OCc1ccccc1)[C@@H]1COC(c2cnccn2)=N1`, the outcome was inactive.

`O=C(OCc1ccccc1)[C@@H]1COC(c2cccnc2Sc2ccccc2)=N1`: the result was inactive.

For the molecule `O=C(O)[C@@H]1COC(c2ccccc2)=N1`, the outcome was inactive.

`C[C@@H]1OC(c2ccccc2OCc2ccccc2)=N[C@@H]1C(=O)OCc1ccccc1`: the outcome was inactive.

For the molecule `O=C(OCc1ccccc1)c1coc(-c2ccccc2P(=O)(c2ccccc2)c2ccccc2)n1`, the outcome was inactive.

On to `O=C(OCc1ccccc1)c1coc(-c2cccnc2Sc2ccccc2)n1`, for which the result was inactive.

For `O=C(OCc1ccccc1)c1coc(-c2cnccn2)n1`, the result was inactive.

Take `O=C(OCc1ccccc1)[C@@H]1COC(c2cncc(Br)c2)=N1`: the result was inactive.

Turning to `O=C(OCc1ccccc1)[C@@H]1COC(c2ccc([N+](=O)[O-])cc2F)=N1`, the outcome was inactive.

For `CCCCOc1ccc(C2=N[C@H](C(=O)OCc3ccccc3)CO2)cc1`, the outcome was inactive.

In the case of `Cc1oc(-c2ccccc2)nc1C(=O)O`, the result was inactive.

The test system of another test is Mycobacterium tuberculosis. The experiment in a line: Antimycobacterial activity against Mycobacterium tuberculosis H37Rv ATCC 27294 in GAST medium after 1 week by microplate alamar blue assay. It counts as functional. The following applies: H37Rv ATCC 27294, 168 h.
Take `O=C(OCc1ccccc1)c1coc(-c2ccc(F)cc2[N+](=O)[O-])n1`: inhibition of growth (MIC) required 9.9 µM (≈ 3.39 µg/mL).

`O=C(OCc1ccccc1)[C@@H]1COC(c2cccc(Cl)c2)=N1` gave an MIC of 1.8 µM (≈ 0.568 µg/mL).

Molecule `O=C(OCc1ccccc1)c1coc(-c2cncc(-c3ccccc3)c2)n1` showed an MIC of 0.98 µM (≈ 0.349 µg/mL).

`O=C(OCc1ccccc1)c1coc(-c2cccc(Cl)c2)n1` showed an MIC of 0.99 µM (≈ 0.311 µg/mL).

`O=C(OCc1ccccc1)c1coc(-c2ccc([N+](=O)[O-])cc2)n1` had an MIC of 42.3 µM (≈ 13.7 µg/mL).

As for `O=C(OCc1ccccc1)[C@@H]1COC(c2cccnc2)=N1`, the lowest concentration to inhibit growth (MIC) was 92.9 µM (≈ 26.2 µg/mL).

`Cc1ccc(C2=N[C@H](C(=O)OCc3ccccc3)CO2)cc1` returned an MIC of 27.3 µM (≈ 8.06 µg/mL).

In the case of `CCOc1ccc(C2=N[C@H](C(=O)OCc3ccccc3)CO2)cc1F`, 3.91 µM (≈ 1.34 µg/mL) was the least that counted as inhibitory (MIC).

Turning to `COc1ccc(C2=N[C@H](C(=O)OCc3ccccc3)[C@H](C)O2)cc1`, the MIC amounted to 37.8 µM (≈ 12.3 µg/mL).

Turning to `COc1ccc(CC2=N[C@H](C(=O)OCc3ccccc3)CO2)cc1`, the MIC is greater than 128 µM.

Take `O=C(OCc1ccccc1)[C@@H]1COC(c2cccnc2Oc2ccccc2)=N1`: the MIC is greater than 128 µM.

Take `CCCOc1ccc(-c2nc(C(=O)OCc3ccccc3)co2)cc1`: 1.94 µM (≈ 0.655 µg/mL) was the least that counted as inhibitory (MIC).

On to `O=C(OCc1ccccc1)[C@@H]1COC(c2ccccn2)=N1`, for which it took 127 µM (≈ 35.9 µg/mL) to inhibit growth (MIC).

For the molecule `O=C(OCc1ccccc1)[C@@H]1COC(c2ccncc2)=N1`, the MIC came to 81.3 µM (≈ 23 µg/mL).

As for `O=C(OCc1ccccc1)[C@@H]1COC(c2ccccc2Cl)=N1`, it took 15.2 µM (≈ 4.8 µg/mL) to inhibit growth (MIC).

In turn, `O=C(OCc1ccccc1)[C@@H]1COC(c2cnccn2)=N1` displayed a minimal inhibitory concentration (MIC) greater than 128 µM.

`O=C(OCc1ccccc1)[C@@H]1COC(c2cccnc2Sc2ccccc2)=N1`: it took 13.4 µM (≈ 5.23 µg/mL) to inhibit growth (MIC).

On to `O=C(O)[C@@H]1COC(c2ccccc2)=N1`, for which the MIC is greater than 128 µM.

`C[C@@H]1OC(c2ccccc2OCc2ccccc2)=N[C@@H]1C(=O)OCc1ccccc1` showed an MIC greater than 128 µM.

`O=C(OCc1ccccc1)c1coc(-c2ccccc2P(=O)(c2ccccc2)c2ccccc2)n1` came in with an MIC of 61.5 µM (≈ 29.5 µg/mL).

In the case of `O=C(OCc1ccccc1)c1coc(-c2cccnc2Sc2ccccc2)n1`, the MIC was greater than 128 µM.

As for `O=C(OCc1ccccc1)c1coc(-c2cnccn2)n1`, the MIC worked out at 22.5 µM (≈ 6.33 µg/mL).

Molecule `O=C(OCc1ccccc1)[C@@H]1COC(c2cncc(Br)c2)=N1` displayed an MIC of 26.6 µM (≈ 9.61 µg/mL).

The molecule `O=C(OCc1ccccc1)[C@@H]1COC(c2ccc([N+](=O)[O-])cc2F)=N1` gave an MIC of 8.7 µM (≈ 3 µg/mL).

Molecule `CCCCOc1ccc(C2=N[C@H](C(=O)OCc3ccccc3)CO2)cc1` gave an MIC of 5.11 µM (≈ 1.81 µg/mL).

Turning to `Cc1oc(-c2ccccc2)nc1C(=O)O`, the MIC is greater than 128 µM.

The subject of the next test is Mycobacterium tuberculosis. The experiment in a line: Antimycobacterial activity against Mycobacterium tuberculosis H37Rv ATCC 27294 in GAS medium after 1 week by microplate alamar blue assay. It counts as functional. The following applies: H37Rv ATCC 27294, 168 h.
On to `O=C(OCc1ccccc1)c1coc(-c2ccc(F)cc2[N+](=O)[O-])n1`, for which the MIC came out at 2.4 µM (≈ 0.821 µg/mL).

Molecule `O=C(OCc1ccccc1)[C@@H]1COC(c2cccc(Cl)c2)=N1` came in with an MIC of 11.6 µM (≈ 3.66 µg/mL).

`O=C(OCc1ccccc1)c1coc(-c2cncc(-c3ccccc3)c2)n1` showed an MIC of 1.49 µM (≈ 0.531 µg/mL).

The molecule `O=C(OCc1ccccc1)c1coc(-c2cccc(Cl)c2)n1` had an MIC of 1.25 µM (≈ 0.392 µg/mL).

As for `O=C(OCc1ccccc1)c1coc(-c2ccc([N+](=O)[O-])cc2)n1`, the MIC was determined as 1.79 µM (≈ 0.58 µg/mL).

The molecule `O=C(OCc1ccccc1)[C@@H]1COC(c2cccnc2)=N1` registered an MIC of 53.3 µM (≈ 15 µg/mL).

`Cc1ccc(C2=N[C@H](C(=O)OCc3ccccc3)CO2)cc1` came in with an MIC of 15.5 µM (≈ 4.58 µg/mL).

Molecule `CCOc1ccc(C2=N[C@H](C(=O)OCc3ccccc3)CO2)cc1F` registered an MIC of 50.5 µM (≈ 17.3 µg/mL).

In turn, `COc1ccc(C2=N[C@H](C(=O)OCc3ccccc3)[C@H](C)O2)cc1` displayed an MIC of 54.1 µM (≈ 17.6 µg/mL).

`COc1ccc(CC2=N[C@H](C(=O)OCc3ccccc3)CO2)cc1` had an MIC greater than 128 µM.

Molecule `O=C(OCc1ccccc1)[C@@H]1COC(c2cccnc2Oc2ccccc2)=N1` yielded an MIC of 58.8 µM (≈ 22 µg/mL).

Regarding `CCCOc1ccc(-c2nc(C(=O)OCc3ccccc3)co2)cc1`, the MIC is 3.48 µM (≈ 1.17 µg/mL).

Regarding `O=C(OCc1ccccc1)[C@@H]1COC(c2ccccn2)=N1`, the MIC is 110 µM (≈ 31.1 µg/mL).

In turn, `O=C(OCc1ccccc1)[C@@H]1COC(c2ccncc2)=N1` came in with an MIC of 55.6 µM (≈ 15.7 µg/mL).

For `O=C(OCc1ccccc1)[C@@H]1COC(c2ccccc2Cl)=N1`, inhibition of growth (MIC) required 49.9 µM (≈ 15.8 µg/mL).

As for `O=C(OCc1ccccc1)[C@@H]1COC(c2cnccn2)=N1`, it took 61.2 µM (≈ 17.3 µg/mL) to inhibit growth (MIC).

`O=C(OCc1ccccc1)[C@@H]1COC(c2cccnc2Sc2ccccc2)=N1` gave an MIC of 17.8 µM (≈ 6.95 µg/mL).

On to `O=C(O)[C@@H]1COC(c2ccccc2)=N1`, for which the MIC was greater than 128 µM.

With `C[C@@H]1OC(c2ccccc2OCc2ccccc2)=N[C@@H]1C(=O)OCc1ccccc1`, the MIC was greater than 128 µM.

Turning to `O=C(OCc1ccccc1)c1coc(-c2ccccc2P(=O)(c2ccccc2)c2ccccc2)n1`, inhibition of growth (MIC) required 61.8 µM (≈ 29.6 µg/mL).

On to `O=C(OCc1ccccc1)c1coc(-c2cccnc2Sc2ccccc2)n1`, for which the MIC is 8 µM (≈ 3.11 µg/mL).

As for `O=C(OCc1ccccc1)c1coc(-c2cnccn2)n1`, the MIC came to 7.32 µM (≈ 2.06 µg/mL).

In the case of `O=C(OCc1ccccc1)[C@@H]1COC(c2cncc(Br)c2)=N1`, the MIC worked out at 27.6 µM (≈ 9.97 µg/mL).

As to `O=C(OCc1ccccc1)[C@@H]1COC(c2ccc([N+](=O)[O-])cc2F)=N1`, the MIC was 13 µM (≈ 4.48 µg/mL).

For the molecule `CCCCOc1ccc(C2=N[C@H](C(=O)OCc3ccccc3)CO2)cc1`, 2.72 µM (≈ 0.961 µg/mL) was the least that counted as inhibitory (MIC).

In turn, `Cc1oc(-c2ccccc2)nc1C(=O)O` returned an MIC greater than 128 µM.

A further test has as its system Vero. Kind of test: Cytotoxicity against african green monkey Vero cells by colorimetric assay. It is filed as cell-based. The conditions noted are these: Chlorocebus sabaeus.
`O=C(OCc1ccccc1)c1coc(-c2ccc(F)cc2[N+](=O)[O-])n1` came in with an IC50 greater than 128 µM.

`O=C(OCc1ccccc1)[C@@H]1COC(c2cccc(Cl)c2)=N1` registered an IC50 greater than 128 µM.

Regarding `O=C(OCc1ccccc1)c1coc(-c2cncc(-c3ccccc3)c2)n1`, the IC50 is greater than 128 µM.

The molecule `O=C(OCc1ccccc1)c1coc(-c2cccc(Cl)c2)n1` registered an IC50 greater than 128 µM.

The MIC is the smallest concentration in the dilution series that meets the test's criterion for growth inhibition. As usually defined, the IC50 is the concentration that inhibits the measured activity by half.
